# Experimental data as given in patent publication US6737383B1, “Herbicidal oxadiazolidines” (priority 1999, dated 2004).
# How the values were obtained:
# [1] = system: purple nutsedge; assay: Test B pre/postemergence purple nutsedge; assay type: in vivo, Cyperus rotundus
# In short: (§1)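 Response is a visual 0-to-10 score relative to untreated plants, where 0 means no effect and 10 means complete control, taken twelve to sixteen days after application. Treatments went onto soil at planting and onto foliage of 1- to 4-leaf plants, using a surfactant-containing non-phytotoxic solvent.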
# [2] = system: smallflower flatsedge; assay: Test B flood test smallflower flatsedge; assay type: in vivo, Cyperus difformis
# In short: (§2)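 Plants were grown to the 2-leaf stage before treatment with test chemical, then held in a greenhouse for twelve to sixteen days. Injury was visually rated against untreated controls on a 0–10 scale, where 0 is no effect and 10 is complete control.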
# [3] = system: surinam grass; assay: Test B pre/postemergence surinam grass; assay type: in vivo, Brachiaria decumbens
# In short: as §1
# [4] = system: giant foxtail; assay: Test B pre/postemergence giant foxtail; assay type: in vivo, Setaria faberii
# In short: as §1
# [5] = system: soybean; assay: Test B pre/postemergence soybean; assay type: in vivo, Glycine max
# In short: as §1
# [6] = system: velvetleaf; assay: Test B pre/postemergence velvetleaf; assay type: in vivo, Abutilon theophrasti
# In short: as §1
# [7] = system: morningglory; assay: Test B pre/postemergence morningglory; assay type: in vivo, Ipomoea hederacea
# In short: as §1
# [8] = system: corn; assay: Test B pre/postemergence corn; assay type: in vivo, Zea mays
# In short: as §1
# [9] = system: cocklebur; assay: Test B pre/postemergence cocklebur; assay type: in vivo, Xanthium strumarium
# In short: as §1
# [10] = system: blackgrass; assay: Test B pre/postemergence blackgrass; assay type: in vivo, Alopecurus myosuroides
# In short: as §1
# [11] = system: bamyardgrass; assay: Test B flood test barnyardgrass; assay type: in vivo, Echinochloa crus-galli
# In short: as §2
# [12] = system: rape; assay: Test B pre/postemergence rape; assay type: in vivo, Brassica napus
# In short: as §1
# [13] = system: pigweed; assay: Test B pre/postemergence pigweed; assay type: in vivo, Amaranthus retroflexus
# In short: as §1
# [14] = system: sugar beet; assay: Test B pre/postemergence sugar beet; assay type: in vivo, Beta vulgaris
# In short: as §1
# [15] = system: wild oat; assay: Test B pre/postemergence wild oat; assay type: in vivo, Avena fatua
# In short: as §1
# [16] = system: crabgrass; assay: Test B pre/postemergence crabgrass; assay type: in vivo, Digitaria sanguinalis
# In short: as §1
# [17] = Preemergence, Rate 62 g/ha, scale of 0 to 10 where 0 is no effect and 10 is complete control
# [18] = Preemergence, Rate 500 g/ha, scale of 0 to 10 where 0 is no effect and 10 is complete control
# [19] = Rate 62 g/ha, Postemergence, scale 0 to 10 (0 no effect, 10 complete control)
# [20] = Rate 125 g/ha, Postemergence, scale of 0 to 10 where 0 is no effect and 10 is complete control
# [21] = Rate 250 g/ha, Postemergence, scale of 0 to 10 where 0 is no effect and 10 is complete control
# [22] = Rate 62 g/ha, headed Pre-emergence (flood test species), scale 0 to 10 (0 no effect, 10 complete control)
# [23] = Rate 125 g/ha, Pre-emergence, flood test species, scale 0 to 10 where 0 is no effect and 10 is complete control
# [24] = Rate 250 g/ha, Pre-emergence, flood-test species, scale 0 to 10, 0 is no effect, 10 is complete control
# [25] = Rate 500 g/ha, Pre-emergence, flood test species, scale 0 to 10 (0 no effect, 10 complete control)
# [26] = Preemergence, Rate 250 g/ha, scale of 0 to 10 where 0 is no effect and 10 is complete control
# [27] = Rate 500 g/ha, Postemergence, scale 0 to 10, 0 no effect, 10 complete control
smiles,measurement,setting,value
CSCCn1c(=O)on(C(=O)N(c2ccc(F)cc2)C(C)C)c1=O [Compound 314],Nutsedge plant response rating,[1]; [17],0
same,Nutsedge plant response rating,[1]; [18],0
same,Nutsedge plant response rating,[1]; [19],0
same,Nutsedge plant response rating,[1]; [20],0
same,"Plant response rating, Nutsedge",[1]; [21],0
same,S. Flatsedge plant response rating,[2]; [22],0
same,S. Flatsedge plant response rating,[2]; [23],0
same,S. Flatsedge plant response rating,[2]; [24],0
same,S. Flatsedge plant response rating,[2]; [25],0
same,B. signalgrass plant response rating,[3]; [17],0
same,"B. signalgrass plant response rating (0 to 10 scale, 0 is no effect, 10 is complete control)","[3]; Preemergence, Rate 125 g/ha",2
same,B. signalgrass plant response rating,[3]; [26],6
same,B. signalgrass plant response rating,[3]; [18],6
same,B. signalgrass plant response rating,[3]; [19],0
same,B. signalgrass plant response rating,[3]; [20],0
same,"Plant response rating, B. signalgrass",[3]; [21],0
same,B. signalgrass plant response rating,[3]; [27],3
same,Giant foxtail plant response rating,[4]; [17],3
same,Giant foxtail plant response rating (0 to 10 scale),"[4]; Preemergence, Rate 125 g/ha",6
same,Giant foxtail plant response rating,[4]; [26],7
same,Giant foxtail plant response rating,[4]; [18],10
same,Giant foxtail plant response rating,[4]; [19],0
same,Giant foxtail plant response rating,[4]; [20],0
same,"Plant response rating, Giant foxtail",[4]; [21],3
same,Soybean plant response rating,[5]; [17],0
same,Soybean plant response rating (0 to 10 scale),"[5]; Preemergence, Rate 125 g/ha",0
same,Soybean plant response rating,[5]; [26],0
same,Soybean plant response rating,[5]; [18],0
same,Soybean plant response rating,[5]; [19],2
same,Soybean plant response rating,[5]; [20],3
same,"Plant response rating, Soybean",[5]; [21],4
same,Velvetleaf plant response rating,[6]; [17],0
same,Velvetleaf plant response rating (0 to 10 scale),"[6]; Preemergence, Rate 125 g/ha",0
same,Velvetleaf plant response rating,[6]; [26],3
same,Velvetleaf plant response rating,[6]; [18],5
same,Velvetleaf plant response rating,[6]; [19],0
same,Velvetleaf plant response rating,[6]; [20],0
same,"Plant response rating, Velvetleaf",[6]; [21],0
same,Morningglory plant response rating,[7]; [17],0
same,Morningglory plant response rating (0 to 10 scale),"[7]; Preemergence, Rate 125 g/ha",0
same,Morningglory plant response rating,[7]; [26],0
same,Morningglory plant response rating,[7]; [18],0
same,Morningglory plant response rating,[7]; [19],2
same,Morningglory plant response rating,[7]; [20],2
same,"Plant response rating, Morningglory",[7]; [21],3
same,Corn plant response rating,[8]; [17],0
same,Corn plant response rating (0 to 10 scale),"[8]; Preemergence, Rate 125 g/ha",0
same,Corn plant response rating,[8]; [26],0
same,Corn plant response rating,[8]; [18],0
same,Corn plant response rating,[8]; [19],0
same,Corn plant response rating,[8]; [20],0
same,"Plant response rating, Corn",[8]; [21],0
same,Corn plant response rating,[8]; [27],0
same,Cocklebur plant response rating,[9]; [17],0
same,Cocklebur plant response rating (0 to 10 scale),"[9]; Preemergence, Rate 125 g/ha",0
same,Cocklebur plant response rating,[9]; [26],0
same,Cocklebur plant response rating,[9]; [18],0
same,Cocklebur plant response rating,[9]; [19],0
same,"Plant response rating, Cocklebur",[9]; [21],1
same,Cocklebur plant response rating,[9]; [27],1
same,Blackgrass plant response rating,[10]; [17],5
same,Blackgrass plant response rating (0 to 10 scale),"[10]; Preemergence, Rate 125 g/ha",7
same,Blackgrass plant response rating,[10]; [26],10
same,Blackgrass plant response rating,[10]; [18],10
same,Blackgrass plant response rating,[10]; [19],2
same,Blackgrass plant response rating,[10]; [20],4
same,"Plant response rating, Blackgrass",[10]; [21],5
same,Blackgrass plant response rating,[10]; [27],5
same,Barnyardgrass plant response rating,[11]; [22],0
same,Barnyardgrass plant response rating,[11]; [23],0
same,Barnyardgrass plant response rating,[11]; [24],0
same,Barnyardgrass plant response rating,[11]; [25],0
same,Rape plant response rating,[12]; [17],0
same,Rape plant response rating,[12]; [26],3
same,Rape plant response rating,[12]; [18],7
same,Rape plant response rating,[12]; [19],0
same,Rape plant response rating,[12]; [20],0
same,"Plant response rating, Rape",[12]; [21],0
same,Redroot pigweed plant response rating,[13]; [17],0
same,Redroot pigweed plant response rating (0 to 10 scale),"[13]; Preemergence, Rate 125 g/ha",2
same,Redroot pigweed plant response rating,[13]; [26],2
same,Redroot pigweed plant response rating,[13]; [18],9
same,Redroot pigweed plant response rating,[13]; [19],0
same,Redroot pigweed plant response rating,[13]; [20],0
same,"Plant response rating, Redroot pigweed",[13]; [21],0
same,Sugarbeets plant response rating,[14]; [17],0
same,Sugarbeets plant response rating (0 to 10 scale),"[14]; Preemergence, Rate 125 g/ha",2
same,Sugarbeets plant response rating,[14]; [26],2
same,Sugarbeets plant response rating,[14]; [18],6
same,Sugarbeets plant response rating,[14]; [19],0
same,Sugarbeets plant response rating,[14]; [20],0
same,"Plant response rating, Sugarbeets",[14]; [21],0
same,Wild oats plant response rating,[15]; [17],0
same,Wild oats plant response rating (0 to 10 scale),"[15]; Preemergence, Rate 125 g/ha",2
same,Wild oats plant response rating,[15]; [26],2
same,Wild oats plant response rating,[15]; [18],3
same,Wild oats plant response rating,[15]; [19],0
same,Wild oats plant response rating,[15]; [20],0
same,"Plant response rating, Wild oats",[15]; [21],2
same,Crabgrass plant response rating,[16]; [17],1
same,Crabgrass plant response rating (0 to 10 scale),"[16]; Preemergence, Rate 125 g/ha",3
same,Crabgrass plant response rating,[16]; [26],7
same,Crabgrass plant response rating,[16]; [18],8
same,Crabgrass plant response rating,[16]; [19],0
same,Crabgrass plant response rating,[16]; [20],0
same,"Plant response rating, Crabgrass",[16]; [21],4
